How the values were obtained:
Type in all cases: functional
[1] = Lethal concentration of compound was evaluated against 60 cell lines in NCI screen
[2] = Compound was evaluated for growth inhibition of 60 cell lines in NCI screen
[3] = Compound was evaluated for total growth inhibition of 60 cell lines in NCI screen
[4] = system: CCRF-CEM; test: Compound was evaluated for growth inhibition of leukemia CCRF-CEM cell line in NCI 60-cell line screen; conditions: Homo sapiens
[5] = system: U-251; test: Compound was evaluated for growth inhibition of central nervous system U251 cell line in NCI 60-cell line screen; conditions: Homo sapiens
[6] = system: OVCAR-5; test: Compound was evaluated for growth inhibition of ovarian OVCAR-5 cell line in NCI 60-cell line screen; conditions: Homo sapiens
[7] = system: RXF 393; test: Compound was evaluated for growth inhibition of renal RXF-393 cell line in NCI 60-cell line screen; conditions: Homo sapiens
[8] = system: MCF7; test: Compound was evaluated for growth inhibition of breast MCF-7 cell line in NCI 60-cell line screen; conditions: Homo sapiens
[9] = system: HCT-116; test: Compound was evaluated for growth inhibition of colon HCT116 cell line in NCI 60-cell line screen; conditions: Homo sapiens
[10] = system: HOP-92; test: Compound was evaluated for growth inhibition of non-small cell lung HOP-92 cell line in NCI 60-cell line screen; conditions: Homo sapiens
[11] = system: PC-3; test: Compound was evaluated for growth inhibition of prostate PC-3 cell line in NCI 60-cell line screen; conditions: Homo sapiens
[12] = system: UACC-257; test: Compound was evaluated for growth inhibition of melanoma UACC-257 cell line in NCI 60-cell line screen; conditions: Homo sapiens

`COc1cc2c(cc1OC)C(=O)N1C=C(/C=C/C(N)=O)C[C@H]1C=N2` showed an LC50 (50% lethal concentration) [1] of 69200 nM, a GI50 [2] of 53 nM and a TGI [3] of 3720 nM.
In the case of `COC(=O)/C=C/C1=CN2C(=O)c3cc(OC)c(OC)cc3N=C[C@@H]2C1`, the LC50 (50% lethal concentration) [1] is reported as 55000 nM, the GI50 [2] is reported as 13 nM and the TGI [3] is reported as 1320 nM.
`COc1cc2c(cc1OC)C(=O)N1C=C(/C=C/C(=O)N(C)C)C[C@H]1C=N2` gave a GI50 [4] of 0.6 nM, a GI50 [5] of 3.33 nM and an LC50 (50% lethal concentration) [1] of 650 nM. For the same compound, the GI50 [6] was 3.21 nM, the GI50 [2] was 12 nM and the GI50 [7] was 1.65 nM. For the same compound, the GI50 [8] was 7.15 nM, the GI50 [9] was 11.7 nM and the TGI [3] was 96 nM. It also gave a GI50 [10] of 2.34 nM, a GI50 [11] of 18.6 nM and a GI50 [12] of 0.25 nM.
With `Cc1ccc2c(c1O)NC(O)C1CC(/C=C/C(N)=O)=CN1C2=O` (stereo not given) [ANTHRAMYCIN] the GI50 [4] was 20 nM, the GI50 [5] was 20 nM and the LC50 (50% lethal concentration) [1] was 12700 nM. It also gave a GI50 [6] of 50.1 nM, a GI50 [2] of 29 nM and a GI50 [7] of 31.6 nM. The GI50 [8] was 39.8 nM, the GI50 [9] was 39.8 nM and the TGI [3] was 610 nM. It also gave a GI50 [10] of 20 nM, a GI50 [11] of 20 nM and a GI50 [12] of 63.1 nM.

Reference: ChEMBL document CHEMBL1137953, “A novel approach to the synthesis of cytotoxic C2-C3 unsaturated pyrrolo[2,1-c]benzodiazepines (PBDs) with conjugated acrylyl C2-substituents” (2004)
